Source: patent publication US20230159620A1, “COMPOSITIONS AND METHODS OF TREATMENT FOR VASCULAR DISEASES AND THROMBOSIS” (Washington University, priority 2021, published 2023)

Columns and labels:
AKT [1] = assay: AKT signaling immunoblot, platelets; assay type: cell-based, human; settings: platelets, vs BSA
Description: Prior to performing signaling assays, cells were trypsinized, centrifuged, suspended in basal media, and counted using an automated hemocytometer. Cells were further diluted in basal media to an assay-dependent concentration. Cells were then incubated with gentle agitation for 60 minutes to prevent cell attachment and reduce basal signaling. PP1, Dynasore, MK-2206, and Rapamycin were diluted in DMSO and used in assay concentrations of 10 μM, 100 μM, 10 μM, and respectively, for the final 20-30 minutes of incubation in basal media. An equal volume of DMSO was used as the negative control condition. […] 1 μg Pearl 1 polyclonal antibody was added as a specific positive control. 20% growth media or 2% fetal bovine serum, labeled “Serum” in figures, was added as a non-specific positive control. The cells were centrifuged at 300G for 3 minutes with the exception of platelets, which were centrifuged at 500G for 5 minutes. The cells were then incubated at 37° C. for 8-45 minutes, depending on the cell type and pathway of interest. The cells were lysed in radioimmunoprecipitation buffer (RIPA) containing a cocktail of protease and phosphatase inhibitors and universal nuclease. Immunoblots were performed by standard techniques, as briefly follows. Protein content was determined using a bicinchoninic acid assay with BSA standards (#23225, Pierce BCA Protein Assay Kit). Cell lysates were then reduced with dithiothreitol (DTT) in lithium dodecyl sulfate (LDS) sample buffer (#NP0007, Invitrogen). Equal protein amounts were added to polyacrylamide gels (#4561086, BioRad) and electrophoresed prior to transferring to a nitrocellulose or polyvinylidene fluoride membrane (#1620260, BioRad). Membranes were blocked in 5% BSA/Tris-buffered saline (TBS) with 0.1% Tween 20 for 30 minutes. The indicated primary antibodies were incubated with the pre-blocked membranes overnight at 4° C. Membranes were washed with TBS with 0.1% Tween 20, probed with fluorescent secondary antibodies, and imaged. β-actin or β-tubulin served as a loading control.
Whole blood was collected by venipuncture into either heparin vacutainers (BD, Franklin Lakes) for whole blood experiments or acid-citrate-dextrose (ACD) vacutainers (BD, Franklin Lakes) for platelet isolation studies. For platelet isolation, samples were supplemented with apyrase (Sigma, St Louis) and prostaglandin E1 (Cayman Chemical, Ann Arbor), and platelet-rich plasma (PRP) was prepared by centrifugation of the ACD whole blood for 20 minutes at 200G. Platelets were isolated from the PRP by centrifugation for 10 minutes at 1000G and resuspended in modified Tyrode's buffer twice at desired platelet counts and kept at 37° C. until used. Isolated platelets were used within 2 hours of preparation.

AKT [2] = assay: AKT signaling immunoblot / phospho-array, HUVECs; assay type: cell-based, human
Description: Cellular reagents were purchased from various commercial vendors. Primary human umbilical vein endothelial cells (HUVECs) were obtained from Cell Applications Inc. and cultured according to the manufacture's recommendations. Primary human coronary artery smooth muscle cells were obtained from Invitrogen and were cultured according to the manufacture's recommendations. 293T cells were obtained from ATCC and were cultured according to the manufacture's recommendations. Mouse primary smooth muscle cells were obtained and cultured as described previously. Predesigned Silencer Select siRNA constructs targeting Pearl 1 and negative control siRNA were obtained from ThermoFisher. Transfections were performed using RNAiMAX or Lipofectamine 3000 transfection reagents according to the manufacturer's protocols. Cells were used for signaling assays 48 hours after transfection; efficient Pearl 1 knockdown or Pearl 1 overexpression was confirmed by immunoblot assays.
Prior to performing signaling assays, cells were trypsinized, centrifuged, suspended in basal media, and counted using an automated hemocytometer. Cells were further diluted in basal media to an assay-dependent concentration. Cells were then incubated with gentle agitation for 60 minutes to prevent cell attachment and reduce basal signaling. PP1, Dynasore, MK-2206, and Rapamycin were diluted in DMSO and used in assay concentrations of 10 μM, 100 μM, 10 μM, and respectively, for the final 20-30 minutes of incubation in basal media. An equal volume of DMSO was used as the negative control condition. […] 1 μg Pearl 1 polyclonal antibody was added as a specific positive control. 20% growth media or 2% fetal bovine serum, labeled “Serum” in figures, was added as a non-specific positive control. The cells were centrifuged at 300G for 3 minutes with the exception of platelets, which were centrifuged at 500G for 5 minutes. The cells were then incubated at 37° C. for 8-45 minutes, depending on the cell type and pathway of interest. The cells were lysed in radioimmunoprecipitation buffer (RIPA) containing a cocktail of protease and phosphatase inhibitors and universal nuclease. Immunoblots were performed by standard techniques, as briefly follows. Protein content was determined using a bicinchoninic acid assay with BSA standards (#23225, Pierce BCA Protein Assay Kit). Cell lysates were then reduced with dithiothreitol (DTT) in lithium dodecyl sulfate (LDS) sample buffer (#NP0007, Invitrogen). Equal protein amounts were added to polyacrylamide gels (#4561086, BioRad) and electrophoresed prior to transferring to a nitrocellulose or polyvinylidene fluoride membrane (#1620260, BioRad). Membranes were blocked in 5% BSA/Tris-buffered saline (TBS) with 0.1% Tween 20 for 30 minutes. […]

[3] = test system: integrin signaling kinases; assay: Integrin signaling western blot, VSMCs; assay type: cell-based, mouse; settings: VSMCs adherent to coated wells, relative to inert protein control
Description: (§1) Cells were resuspended in serum-free media (SFM) and incubated with gentle agitation to prevent cell attachment and reduce basal signaling. […] Cells were briefly centrifuged to the bottom of the wells and incubated for 8 min (for VSMCs) or 15 min (for THP-1 cells) before lysis with cell lysis buffer (#9803, Cell Signaling Technologies) containing a cocktail of protease and phosphatase inhibitors. Western blots were performed by standard techniques, as briefly follows. Protein content was determined using a bicinchoninic acid assay with BSA standards (#23225, Pierce™ BCA Protein Assay Kit). Cell lysates were then reduced with DTT in lithium dodecyl sulfate sample buffer (#NP0007, Invitrogen). Equal protein amounts were added to polyacrylamide gels (#4561086, BioRad) and electrophoresed prior to transferring to a nitrocellulose or polyvinylidene fluoride membrane (#1620260, BioRad). Membranes were blocked in 5% BSA/Tris-Buffered Saline with tween 20 for 30 min. The indicated primary antibodies were incubated with the pre-blocked membranes for overnight at 4° C. Membranes were washed with Tris-Buffered Saline with tween 20, probed with fluorescent secondary antibodies, and imaged. β-actin or β-tubulin served as a loading control.

Notch = settings: 4 hours on SVEP1 vs BSA
Description: Cells were collected, resuspended in SFM, and incubated for 1 hr with gentle agitation before seeding on tissue culture wells that were precoated and blocked, as described in previous sections. Cells were collected for analysis after 4 hr of growth on the indicated substrate. Svep1SMC+/+ and Svep1SMCΔ/Δ VSMCs were collected for analysis after 72 hr of incubation in SFM to obtain basal Notch signaling.

Integrin signaling = Integrin signaling western blot, THP-1 cells; assay type: cell-based, human
Description: as §1

Pearl 1ECD = Pearl 1ECD (Homo sapiens, UniProt Q5VY43); settings: pulldown assays
Sequence of Pearl 1ECD (Q5VY43 21-755 limits assumed): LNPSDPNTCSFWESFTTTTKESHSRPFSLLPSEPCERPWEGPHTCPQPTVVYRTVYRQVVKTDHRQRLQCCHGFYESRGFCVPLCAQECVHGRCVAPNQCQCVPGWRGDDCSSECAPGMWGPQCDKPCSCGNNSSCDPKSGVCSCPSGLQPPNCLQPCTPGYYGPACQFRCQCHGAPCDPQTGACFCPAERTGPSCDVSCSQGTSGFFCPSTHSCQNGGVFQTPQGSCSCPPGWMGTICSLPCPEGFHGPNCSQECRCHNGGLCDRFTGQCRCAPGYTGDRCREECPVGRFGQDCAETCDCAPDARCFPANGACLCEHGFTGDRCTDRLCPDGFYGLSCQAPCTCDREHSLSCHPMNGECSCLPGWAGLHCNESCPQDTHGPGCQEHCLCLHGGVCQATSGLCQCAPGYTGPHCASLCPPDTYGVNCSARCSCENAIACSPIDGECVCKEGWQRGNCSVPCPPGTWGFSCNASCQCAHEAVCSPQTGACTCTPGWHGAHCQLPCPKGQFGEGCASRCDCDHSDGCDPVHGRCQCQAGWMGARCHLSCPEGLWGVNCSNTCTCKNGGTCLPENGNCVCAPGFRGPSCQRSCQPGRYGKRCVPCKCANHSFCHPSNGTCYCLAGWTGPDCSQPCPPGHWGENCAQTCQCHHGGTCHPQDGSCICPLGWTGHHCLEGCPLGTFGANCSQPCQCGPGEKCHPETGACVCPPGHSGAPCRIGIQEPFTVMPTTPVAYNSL
Description: The assay buffer consisted of lmg/mL BSA, 0.01% Tween 20, and 10 mM Ca^2+ in PBS. The proteins were incubated together for two hours while rotating. Where indicated, 2 μg primary antibodies were added during the final 30 minutes of the initial incubation. Following the incubation, aliquots were reserved as the input fraction. Subsequently, 6-10 μL slurry of Pierce Anti-c-Myc Magnetic Beads, Invitrogen Dynabeads Protein G beads, or Pierce Streptavidin Magnetic Bead slurry were added, followed by a 1-hour incubation at 20° C. with gentle agitation. Beads were washed in PBS +0.01% Tween 20 and resuspended reducing LDS sample buffer and analyzed by immunoblot assay.

Human platelets = settings: static conditions, with and without 0.1 U/mL thrombin
Description: Subsequently, coverslips were blocked with 1% BSA and washed with PBS. Human platelets were isolated from whole blood and re-suspended in Tyrode's buffer. 2×10^7/mL basal or thrombin activated platelets were added to coverslips and incubated at 37° C. for 10, 20, or 30 minutes. After incubation, non-adherent platelets were removed and the coverslips were washed with PBS, fixed with 1.5% paraformaldehyde, permeabilized with 0.01% Triton-X and stained with TRITC phalloidin. Platelets were visualized using fluorescent microscopy. Images of the adhered platelets were captured using fluorescent microscopy and counted manually by a blinded observer.

Fibronectin = Fibronectin (Mus musculus, UniProt P11276); settings: enriched VSMC media
Sequence of Fibronectin (P11276 33-2477): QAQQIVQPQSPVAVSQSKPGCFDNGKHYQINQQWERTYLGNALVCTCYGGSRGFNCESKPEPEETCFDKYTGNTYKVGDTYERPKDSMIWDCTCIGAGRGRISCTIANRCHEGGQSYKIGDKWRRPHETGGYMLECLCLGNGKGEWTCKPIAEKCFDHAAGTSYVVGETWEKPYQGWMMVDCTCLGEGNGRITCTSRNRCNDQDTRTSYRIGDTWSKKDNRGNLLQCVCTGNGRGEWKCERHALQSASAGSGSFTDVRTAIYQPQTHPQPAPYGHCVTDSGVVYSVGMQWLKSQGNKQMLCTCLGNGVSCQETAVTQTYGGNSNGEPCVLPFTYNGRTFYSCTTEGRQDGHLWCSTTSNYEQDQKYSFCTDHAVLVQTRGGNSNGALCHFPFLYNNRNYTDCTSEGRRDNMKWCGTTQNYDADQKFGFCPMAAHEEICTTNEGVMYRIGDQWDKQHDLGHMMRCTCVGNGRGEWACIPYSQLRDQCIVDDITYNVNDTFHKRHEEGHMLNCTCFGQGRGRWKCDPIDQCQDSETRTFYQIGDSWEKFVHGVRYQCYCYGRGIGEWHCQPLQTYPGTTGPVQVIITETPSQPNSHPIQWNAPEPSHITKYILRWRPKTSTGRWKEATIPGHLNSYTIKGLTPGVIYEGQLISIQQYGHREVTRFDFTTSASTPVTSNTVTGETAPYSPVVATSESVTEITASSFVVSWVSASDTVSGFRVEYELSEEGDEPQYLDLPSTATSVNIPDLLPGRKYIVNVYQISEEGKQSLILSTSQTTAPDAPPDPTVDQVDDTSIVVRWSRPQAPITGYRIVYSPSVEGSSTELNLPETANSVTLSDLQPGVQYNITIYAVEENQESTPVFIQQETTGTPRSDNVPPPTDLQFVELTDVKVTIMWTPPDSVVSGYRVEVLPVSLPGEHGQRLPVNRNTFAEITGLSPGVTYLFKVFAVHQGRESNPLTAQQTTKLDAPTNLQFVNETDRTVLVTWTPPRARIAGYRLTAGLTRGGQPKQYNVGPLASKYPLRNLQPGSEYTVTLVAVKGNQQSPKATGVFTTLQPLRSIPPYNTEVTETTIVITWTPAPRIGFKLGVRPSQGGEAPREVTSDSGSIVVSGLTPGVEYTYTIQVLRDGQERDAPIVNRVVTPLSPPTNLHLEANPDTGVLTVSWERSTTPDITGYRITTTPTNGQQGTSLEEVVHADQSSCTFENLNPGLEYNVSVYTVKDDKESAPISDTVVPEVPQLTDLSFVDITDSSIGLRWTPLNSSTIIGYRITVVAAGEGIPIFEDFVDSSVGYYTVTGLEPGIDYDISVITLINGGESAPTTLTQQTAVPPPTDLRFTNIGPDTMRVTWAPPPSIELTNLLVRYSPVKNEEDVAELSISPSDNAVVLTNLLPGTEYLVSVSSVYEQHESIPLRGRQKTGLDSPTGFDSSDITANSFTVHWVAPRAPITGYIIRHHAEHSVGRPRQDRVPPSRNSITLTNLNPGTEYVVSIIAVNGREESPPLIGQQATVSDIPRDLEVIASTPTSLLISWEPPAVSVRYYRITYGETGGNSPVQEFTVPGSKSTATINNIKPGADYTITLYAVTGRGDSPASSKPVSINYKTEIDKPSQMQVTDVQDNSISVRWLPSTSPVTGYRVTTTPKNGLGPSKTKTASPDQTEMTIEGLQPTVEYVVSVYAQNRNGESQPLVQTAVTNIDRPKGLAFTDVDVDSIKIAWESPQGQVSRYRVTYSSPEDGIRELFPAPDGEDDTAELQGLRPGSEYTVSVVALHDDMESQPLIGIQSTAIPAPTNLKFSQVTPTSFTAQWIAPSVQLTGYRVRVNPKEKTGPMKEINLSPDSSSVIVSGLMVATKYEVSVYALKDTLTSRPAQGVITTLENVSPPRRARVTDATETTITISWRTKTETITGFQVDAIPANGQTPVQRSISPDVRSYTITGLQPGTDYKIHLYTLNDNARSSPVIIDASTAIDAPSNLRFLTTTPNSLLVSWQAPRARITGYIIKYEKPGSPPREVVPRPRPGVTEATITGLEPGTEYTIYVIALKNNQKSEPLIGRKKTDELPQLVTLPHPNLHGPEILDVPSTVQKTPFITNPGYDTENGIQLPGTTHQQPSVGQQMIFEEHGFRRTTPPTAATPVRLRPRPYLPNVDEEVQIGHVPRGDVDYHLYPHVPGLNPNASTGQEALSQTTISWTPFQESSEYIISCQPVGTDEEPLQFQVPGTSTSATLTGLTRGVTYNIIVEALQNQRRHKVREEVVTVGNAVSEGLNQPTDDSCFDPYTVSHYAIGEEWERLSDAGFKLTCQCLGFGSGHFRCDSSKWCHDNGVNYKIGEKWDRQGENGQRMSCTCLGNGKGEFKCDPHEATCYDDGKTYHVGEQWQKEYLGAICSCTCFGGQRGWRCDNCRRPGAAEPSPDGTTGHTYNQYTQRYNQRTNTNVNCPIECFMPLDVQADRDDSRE
Description: Affinity-based proteomics: Murine VSMCs were grown to confluence in serum-containing media and changed to serum-free media to generate enriched media. […] An aliquot was removed after incubation as the “input” fraction. Media was then added to a slurry of Pierce Anti-c-Myc Magnetic Beads+0.05% Tween 20 and incubated for 30 minutes while rocking at 4° C. The beads were then washed twice with Ca^2+ and Mg^2+-containing PBS (D8662, Sigma) +0.05% Tween 20 and twice with Ca^2+ and Mg^2+-containing PBS before a final resuspension in PBS. An aliquot of the beads was reserved as the pulldown fraction for validation. […] The samples were incubated for 4 hours prior to dialysis. Protease arrest (G-Biosciences) was added and excess biotin was dialyzed using a 10 kDa molecular weight cut-off (MWKO) Slide-A-Lyzer™ dialysis Cassette (ThermoFisher Scientific) in buffered saline+1 mM EDTA. The samples were then transferred to 10 kDa MWKO Vivasin column (Sartorius Stedim Biotech), centrifuged, resuspended in RIPA buffer, centrifuged, and added to pre-washed Pierce Streptavidin Magnetic Beads. The samples and beads were incubated for 1 hour at room temperature or overnight at 4° C. and then washed with the following solutions: RIPA buffer, 1M 732 KCl, 0.1M Na2CO3, 2M urea in 10 mM Tris HCl (pH=8.0), and PBS. The beads were then resuspended in PBS for peptide preparation.

- co-immunoprecipitation of Pearl 1ECD with Myc-tagged SVEP1 (Pearl 1ECD): co-immunoprecipitates
- pulldown of Fibronectin (Fibronectin): confirmed
Substance: SVEP1: recombinant murine SVEP1 extracellular matrix protein with Myc and poly-histidine tag, expressed in 293F cells
- AKT phosphorylation (pAKT) (AKT [1]): induced AKT phosphorylation
- pAKT, AKT pathway phospho-array (AKT [2]; 10 or 30 minutes, SVEP1 relative to BSA): Elevated pAKT
- AKT signaling (AKT [2]; relative to BSA controls): activated
- phosphorylation of FAK, Paxillin, Src, ERK and p38 [3]: increased phosphorylation
- expression of canonical Notch targets Hey2 and Hes 1 (Notch): significantly increased expression
- integrin signaling (Integrin signaling): activated
- adherence of platelets to coated coverslips (Human platelets): adhered
- adhesion of THP-1 cells (THP-1 cells): adhered to SVEP1 in a dose-dependent manner
